Usually solubility stands for how much of the substance goes into solution per volume. Read a high solubility as a readily soluble substance.

A short description of this data set: physchem. The following applies: Solubility of RA.

In brackets after ≈: the same amount, converted by molar mass. Where only a bound is given, the exact number is not on record here.

Method: Therefore, TPGS is added with ethanol to increase the solubility of the hydrophobic drug in according to the present invention.

As to `CC1=C(/C=C/C(C)=C/C=C/C(C)=C/C(=O)O)C(C)(C)CCC1` [RA, All-Trans Retinoic Acid], the solubility runs as follows: (aqueous buffer) less than 0.1 µg/mL; (saline or isotonic) 4 µg/mL (≈ 13.3 µM).
